# “And” between values parts separate entries of the source, which are not always exact repeats. Equal entries are not always repeated. Where two headings read alike, the source gives them in different places.
# Tests used:
# [1] = molecular target: T1, human androgen receptor (AR) (Homo sapiens, UniProt P10275); experiment: C2C12 AR/ARE reporter assay; type: cell-based
# T1 construct: expressed in transfected cells; host or cells: mouse myoblast C2C12 cells, transiently co-transfected
# T1 sequence (P10275 1-920): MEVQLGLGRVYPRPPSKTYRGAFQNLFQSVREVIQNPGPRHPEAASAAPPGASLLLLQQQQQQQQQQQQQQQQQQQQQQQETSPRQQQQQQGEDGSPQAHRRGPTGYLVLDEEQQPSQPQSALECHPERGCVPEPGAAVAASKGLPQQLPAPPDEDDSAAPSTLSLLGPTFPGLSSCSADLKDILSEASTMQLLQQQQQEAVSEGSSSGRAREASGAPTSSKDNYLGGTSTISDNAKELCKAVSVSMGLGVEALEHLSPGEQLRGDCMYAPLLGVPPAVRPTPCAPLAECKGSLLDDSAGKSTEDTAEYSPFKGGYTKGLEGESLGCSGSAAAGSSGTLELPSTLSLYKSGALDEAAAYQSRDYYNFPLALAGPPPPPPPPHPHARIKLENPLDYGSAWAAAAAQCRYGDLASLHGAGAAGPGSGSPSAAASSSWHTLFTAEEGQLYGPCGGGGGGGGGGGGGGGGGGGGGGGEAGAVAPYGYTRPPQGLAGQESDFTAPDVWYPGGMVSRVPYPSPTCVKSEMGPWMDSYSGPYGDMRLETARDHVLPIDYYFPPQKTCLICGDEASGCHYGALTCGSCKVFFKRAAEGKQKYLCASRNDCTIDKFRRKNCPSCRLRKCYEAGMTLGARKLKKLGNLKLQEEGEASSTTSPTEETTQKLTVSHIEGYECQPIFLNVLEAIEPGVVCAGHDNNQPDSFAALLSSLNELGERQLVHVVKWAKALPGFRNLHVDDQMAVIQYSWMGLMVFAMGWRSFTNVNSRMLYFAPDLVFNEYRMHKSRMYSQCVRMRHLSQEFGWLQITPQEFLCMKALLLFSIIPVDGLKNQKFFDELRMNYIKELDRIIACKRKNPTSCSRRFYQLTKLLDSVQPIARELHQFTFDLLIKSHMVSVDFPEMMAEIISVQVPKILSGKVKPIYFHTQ
# How it was run: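 Mouse C2C12 myoblasts co-transfected with AR/ARE reporter were plated in charcoal-stripped serum and treated for 48 h with compound from about 0.01 nM to 10 μM. Luciferase activity gave EC50 by 4-parameter logistic fit. Efficacy is expressed as % of maximal stimulation by 10 nM methyltrienolone.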
# [2] = molecular target: T2, human AR (androgen receptor) (Homo sapiens, UniProt P10275); experiment: Steroid hormone nuclear receptor binding assay, AR binding
# T2 construct: expressed in transfected cells; host or cells: 293 cells (293-AR lysate)
# T2 sequence (P10275 1-920): T1 sequence (P10275 1-920)
# How it was run: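 Competition binding with lysates of 293 cells overexpressing human AR, [3H]-methyltrienolone tracer, compounds from about 0.01 nM to 10 μM, overnight at 4 °C; non-specific binding set with 500 nM methyltrienolone. Bound tracer counted by scintillation after charcoal-dextran separation; IC50 converted to Ki by Cheng-Prusoff using Kd from saturation binding.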
# [3] = C2C12, read-out: C2C12 % Efficacy
# [4] = C2C12 AR/ARE reporter assay, average of n trials, read-out: C2C12 % Efficacy
# [5] = C2C12 AR/ARE reporter assay, average of n trials, read-out: C2C12 EC50
# [6] = average of n trials, read-out: AR binding Ki
Compound,EC50 [1] [nM],"Emax [1, 3] [%]",melting point,Ki [2] [nM],"Emax [1, 4] [%]","EC50 [1, 5] [nM]","Ki [2, 6] [nM]"
"COc1ccccc1Cn1c2c(c3cc(Cl)ccc31)CC(NC(=O)C(C)C)CC2 (stereo not shown) [Example 19, N-[6-chloro-9-(2-methoxy-benzyl)-2,3,4,9-tetrahydro-1H-carbazol-3-yl]-isobutyramide]",245,63.2,141 to 149 °C,37.8,,,
"CC(C)C(=O)N[C@@H]1CCc2c(c3cc(C#N)ccc3n2Cc2cccc(F)c2)C1 (single isomer, unassigned) [Example 123]",1.8,87,223 to 225 °C,1,,,
CC(C)C(=O)NC1CCc2c(c3cccc(Cl)c3n2Cc2cccc(F)c2)C1 (stereo not shown) [Example 57],323,36.5,205 to 207 °C,25.1,,,
CC(C)C(=O)NC1CCc2c(c3cc(Br)ccc3n2Cc2cccc(Cl)c2)C1 (stereo not shown) [Example 36],20.7,99.4,186 to 188 °C,7.6,,,
CC(C)C(=O)NC1CCc2c(c3ccccc3n2Cc2cccc(F)c2)C1 (stereo not shown) [Example 3],194,66.4,170 to 172 °C,10.1,,,
COc1ccc(Cn2c3c(c4cc(Br)ccc42)CC(NC(=O)C(C)C)CC3)cc1 (stereo not shown) [Example 41],1820,46.6,120 to 125 °C,43.2,,,
CO/N=C/c1ccc2c(c1)c1c(n2Cc2cccc(F)n2)CC[C@@H](NC(=O)C2CC2)C1 [Example 209],1.1,95.7,223 to 225 °C,7.8,,,
"COC(=O)Nc1ccc2c(c1)c1c(n2Cc2cccc(F)c2)CC[C@@H](NC(=O)C(C)C)C1 [Example 190, (R)-[9-(3-Fluorobenzyl)-6-isobutyrylamino-6,7,8,9-tetrahydro-5H-carbazol-3-yl]-carbamic acid methyl ester]",2.2,86,111 to 115 °C,6.7,,,
"CC(C)C(=O)NC1CCc2c(c3cc(C#N)ccc3n2Cc2ncccc2F)C1 (stereo not shown) [Example 182, N-[6-Cyano-9-(3-fluoro-pyridin-2-ylmethyl)-2,3,4,9-tetrahydro-1H-carbazol-3-yl]-isobutyramide]",151,88.7,213 to 216 °C,28.4,,,
"CC(C)C(=O)NC1CCc2c(c3cc(-c4nnc(N)s4)ccc3n2Cc2cccc(F)c2)C1 (stereo not shown) [Example 125, N-[6-(5-Amino[1,3,4]thiadiazol-2-yl)-9-(3-fluorobenzyl)-2,3,4,9-tetrahydro-1H-carbazol-3-yl]isobutyramide]",68.5,75.8,251 to 254 °C,55.1,,,
Cc1ccc2c(c1)c1c(n2Cc2cccc(Cl)c2)CCC(NC(=O)C(C)C)C1 (stereo not shown) [Example 48],116,69.5,190 to 192 °C,9.4,,,
"CO/N=C/c1ccc2c(c1)c1c(n2Cc2cccc(F)c2)CCC(NC(=O)C(C)C)C1 (stereo not shown) [Example 199, N-[9-(3-Fluoro-benzyl)-6-(methoxyimino-methyl)-2,3,4,9-tetrahydro-1H-carbazol-3-yl]-isobutyramide]",,,180 to 182 °C,,83.6,1.8,6.6
"COc1ccc2c(c1)c1c(n2Cc2ccccc2)CCC(NC(C)=O)C1 (stereo not shown) [Example 65, N-(9-Benzyl-6-methoxy-2,3-4,9-tetrahydro-1H-carbazol-3-yl)-acetamide]",,,184 to 185 °C,,87.3,40.5,58.4
"CC(C)C(=O)NC1CCc2c(c3cc4c(cc3n2Cc2cccc(F)c2)OC(F)(F)O4)C1 (stereo not shown) [Example 99, N-[2,2-Difluoro-9-(3-fluoro-benzyl)-6,7,8,9-tetrahydro-5H-1,3-dioxa-9-aza-cyclopenta[b]fluoren-6-yl]-isobutyramide]",9.4,69,197 to 199 °C,6.2,,,
CC(C)C(=O)NC1CCc2c(c3cc(Cl)ccc3n2Cc2ccccc2F)C1 (stereo not shown) [Example 17],148,62.1,190 to 193 °C,8.6,,,
CC(C)C(=O)NC1CCc2c(c3cc(Cl)ccc3n2Cc2cccc(Cl)c2)C1 (stereo not shown) [Example 22],75.7,74.7,187 to 189 °C,3.5,,,
"N#Cc1ccc2c(c1)c1c(n2Cc2cccc(F)c2)CCC(NC(=O)C2CC2)C1 (stereo not shown) [Example 193, Cyclopropanecarboxylic acid[6-cyano-9-(3-fluorobenzyl)-2,3,4,9-tetrahydro-1H-carbazol-3-yl]amide]",7.9,92.7,208 to 210 °C and 207 to 209 °C,4.3,,,
Cc1ccc2c(c1)c1c(n2Cc2cccc(C#N)c2)CCC(NC(=O)C(C)C)C1 (stereo not shown) [Example 50],940,45.8,209 to 211 °C,150,,,
CCOC(=O)c1ccc2c(c1)c1c(n2Cc2cccc(F)c2)CCC(NC(=O)C(C)C)C1 (stereo not shown) [Example 52],5.6,73.2,226 to 228 °C,6.1,,,
COc1cc2c3c(n(Cc4cccc(F)c4)c2cc1Cl)CCC(NC(=O)C(C)C)C3 (stereo not shown) [Example 59],242,39.5,212 to 215 °C,59,,,
"Cc1cc(-c2ccc3c(c2)c2c(n3Cc3cccc(F)c3)CC[C@@H](NC(=O)C3CC3)C2)no1 [Example 204, (R)-Cyclopropanecarboxylic acid[9-(3-fluoro-benzyl)-6-(5-methyl-isoxazol-3-yl)-2,3,4,9-tetrahydro-1H-carbazol-3-yl]-amide]",2.7,90.8,190 to 192 °C,6.8,,,
COc1ccc(Cn2c3c(c4cc(Cl)ccc42)CC(NC(=O)C(C)C)CC3)cc1 (stereo not shown) [Example 27],,23.2,182 to 184 °C,45.8,,,
CC(C)C(=O)NC1CCc2c(c3cc(Br)ccc3n2Cc2ccc(Cl)cc2)C1 (stereo not shown) [Example 40],188,68,142 to 149 °C,30.9,,,
CC(C)C(=O)NC1CCc2c(c3cc(F)ccc3n2Cc2ccccc2Cl)C1 (stereo not shown) [Example 5],,80.3,155 to 157 °C,24.6,,,
"N#Cc1ccc2c(c1)c1c(n2Cc2ccccn2)CC[C@@H](NC(=O)C2CC2)C1 [Example 196, Cyclopropanecarboxylic acid[6-cyano-9-(pyridin-2-ylmethyl)-2,3,4,9-tetrahydro-1H-carbazol-3-yl]-amide]",15.3,95.2,239 to 241 °C,16.1,,,
"CC(C)C(=O)NC1CCc2c(c3cc(C#N)ccc3n2Cc2ccccc2C(F)(F)F)C1 (stereo not shown) [Example 96, N-[6-Cyano-9-(2-trifluoromethyl-benzyl)-2,3,4,9-tetrahydro-1H-carbazol-3-yl]-isobutyramide]",123,88,222 to 225 °C,14.7,,,
CC(C)C(=O)NC1CCc2c(c3ccccc3n2Cc2ccccc2)C1 (stereo not shown) [Example 2],313,59.4,191 to 193 °C,17.7,,,
